Paper PMC12627862, “Therapeutic targeting of endothelial calcium signaling accelerates the resolution of lung injury” (Signal Transduction and Targeted Therapy, 2025)
Starred links: 1 amine or outer side, 2 acyl side, 3 side chain; linkers in the order of their positions; H or OH if unused. Positions of bridges follow the written chain, without caps; N, C: chain ends. Non-standard residues stand in square brackets, D forms with d. Residues, ends and D or L forms follow the SMILES beside them. X5 = O=C([C@@H]1[C@@H]2CCCC[C@@H]2CN1[*:1])[*:2]; Leu(4,5-dehydro) = C=C(C)C[C@H](N)C(=O)O; X4 = C=C(C)C[C@@H](N[*:1])C(=O)[*:2]; dVal(3-OH) = CC(C)(O)[C@@H](N)C(=O)O; Val(3-OH) = CC(C)(O)[C@H](N)C(=O)O; tBuAla = CC(C)(C)C[C@H](N)C(=O)O

What was measured:
[1] = Aggregation / solubility at 1 mM; type: physicochemical; conditions: summary calls it solubility at 1mM
Method: (§1) The solubilities of the synthesized compounds were determined experimentally (Supplementary Table 2). Most compounds were highly soluble at a 1 mM concentration; however, some compounds tended to form aggregates. These compounds were excluded from further studies. In addition, we experimentally determined the lipophilicity of each compound, logP(oct/wat)=log(soluteoct/solutewat ), which is the partition coefficient of a compound between aqueous (water) and lipophilic (octanol) phases (Supplementary Table 2).

[2] = target: EB3 interactions with IP3R3-GFP (Homo sapiens, UniProt Q9UPY8); assay: Competitive binding: inhibition of EB3 interaction with IP3R3-GFP in vitro; type: biochemical; conditions: for inhibition at 0.25 µM: 250 nM
Chain of EB3 interactions with IP3R3-GFP (Q9UPY8 whole entry): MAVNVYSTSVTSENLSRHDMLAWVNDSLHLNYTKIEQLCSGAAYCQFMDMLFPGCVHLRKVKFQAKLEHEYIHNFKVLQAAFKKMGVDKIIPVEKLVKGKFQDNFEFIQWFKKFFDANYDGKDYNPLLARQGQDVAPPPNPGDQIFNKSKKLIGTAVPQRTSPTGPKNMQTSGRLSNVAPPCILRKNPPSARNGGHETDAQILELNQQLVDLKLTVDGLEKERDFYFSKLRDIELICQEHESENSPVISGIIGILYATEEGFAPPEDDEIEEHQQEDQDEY
Excerpt: We tested the efficacy of twenty-three compounds in inhibiting EB3 interactions with IP3R3-GFP via an in vitro approach developed by us[12],[13]. […] Guided by NMR studies, we predicted the binding pose of 109 to EB3 via AutoDock Vina[13],[24],[25].

[3] = Lipophilicity of peptides, logP(oct/wat); type: physicochemical
Method: as §1
Lipophilicity of peptides. Two separate solutions were obtained: an aqueous phosphate buffer with saturated n-octanol, and an n-octanol solution with saturated phosphate buffer. Peptides were then dissolved and diluted in the phosphate buffer. Different partitions were then made with different n-octanol to water ratio before shaking for an hour at room temperature. The aqueous phase and n-octanol were allowed to equilibrate, and each phase was extracted and analyzed for peptide concentrations. The ratio of peptide concentration in n-octanol to that in water is expressed as log(P).

[4] = system: CD1 mice, cecal ligation and puncture; assay: Polymicrobial sepsis model (CLP); type: in vivo, mouse; conditions: CLP 18-gauge; monotherapy: VT-109 0.5 µmol/kg bw or enrofloxacin 5 mg/kg bw

Row | SMILES | Aggregation at 1mM [1] | inhibition at 0.25 µM [2] | logD [3] | Competitive Binding at 250nM (% Inhibition) [2] | survival [4]
1 | CCN1CCN(c2cc3c(cc2F)c(=O)c(C(=O)O)cn3C2CC2)CC1 [enrofloxacin, reference compound] |  |  |  |  | neither antibiotics nor VT-109 monotherapy (0.5 µmol/kg bw) significantly improved survival
2 | CC[C@H](C)[C@@H]1NC(=O)[C@H]([C@@H](C)O)NC(=O)[C@@H]2CCCN2C(=O)[C@H]([C@@H](C)CC)NC(=O)[C@H](CCC(=O)O)NC(=O)[C@H]([C@@H](C)O)NC(=O)[C@H](Cc2ccccc2)NC1=O [compound 012, 3-((3S,6S,9S,12S,15S,18S,23aS)-9-benzyl-6,18-di((S)-sec-butyl)-3,12-bis((R)-1-hydroxyethyl)-1,4,7,10,13,16,19-heptaoxodocosahydro-1H-pyrrolo[1,2-a][1,4,7,10,13,16,19]heptaazacyclohenicosin-15-yl)propanoic acid.] (cyclo(EIPTIFT)) |  | 49% | -0.04 |  | 
3 | CC[C@H](C)[C@H](NC(=O)[C@@H](NC(=O)[C@@H]1CCCN1C(=O)[C@@H](NC(=O)[C@H](CCC(=O)O)NC(=O)[C@@H](NC(=O)[C@H](N)Cc1ccccc1)[C@@H](C)O)[C@@H](C)CC)[C@@H](C)O)C(=O)O [compound 004, (S)-4-((2S,3R)-2-((R)-2-amino-3-phenylpropanamido)-3-hydroxybutanamido)-5-(((2S,3S)-1-((S)-2-(((2S,3R)-1-(((1S,2S)-1-carboxy-2-methylbutyl)amino)-3-hydroxy-1-oxobutan-2-yl)carbamoyl)pyrrolidin-1-yl)-3-methyl-1-oxopentan-2-yl)amino)-5-oxopentanoic acid] (H-[dF]TEIPTI-OH) | 0.35 | 39% | -0.81 |  | 
4 | CC[C@H](C)[C@H](NC(=O)[C@@H](NC(=O)[C@@H]1CCCN1C(=O)[C@H](CC(C)(C)C)NC(=O)[C@@H](CCC(=O)O)NC(=O)[C@@H](NC(=O)[C@@H](N)Cc1ccccc1)C(C)(C)O)[C@@H](C)O)C(=O)O [compound 016, (R)-4-((S)-2-((S)-2-amino-3-phenylpropanamido)-3-hydroxy-3-methylbutanamido)-5-(((S)-1-((S)-2-(((2S,3R)-1-(((1S,2S)-1-carboxy-2-methylbutyl)amino)-3-hydroxy-1-oxobutan-2-yl)carbamoyl)pyrrolidin-1-yl)-4,4-dimethyl-1-oxopentan-2-yl)amino)-5-oxopentanoic acid] (H-F[Val(3-OH)][dE][tBuAla]PTI-OH) | 0.18 | 48% | -0.3 |  | 
5 | CC[C@H](C)[C@@H]1NC(=O)[C@H]([C@@H](C)O)NC(=O)[C@@H]2CCCN2C(=O)[C@H]([C@@H](C)CC)NC(=O)[C@H](CCC(=O)O)NC(=O)[C@H]([C@@H](C)O)NC(=O)[C@H](Cc2ccccc2)NC(=O)CNC(=O)CNC(=O)[C@H]([C@@H](C)O)NC(=O)CC[C@@H](C(=O)O)NC(=O)[C@@H]2CCCN2C(=O)[C@H](CC(C)C)NC1=O [compound 013, (6S,9S,12S,15S,24S,29S,31aS,37S,40S,43S,45aS)-15-benzyl-6,40-di((S)-sec-butyl)-9-(2-carboxyethyl)-12,24,43-tris((R)-1-hydroxyethyl)-37-isobutyl-5,8,11,14,17,20,23,26,31,36,39,42,45-tridecaoxotetratetracontahydro-5H-dipyrrolo[2,1-c:2',1'-o][1,4,7,10,13,16,19,22,25,28,31,34,37]tridecaazacyclohentetracontine-29-carboxylic acid] (TGGFTEIPTILPE-OH; lactam N-13) |  | 51% | -0.27 |  | 

More lines, main results first:

Row | Aggregation at 1mM [1] | inhibition at 0.25 µM [2] | logD [3] | Competitive Binding at 250nM (% Inhibition) [2] | SMILES | survival [4]
6 | weak signal | 40% | -0.89 |  | C=C(C)C[C@H](NC(=O)[C@H](CCC(=O)O)NC(=O)[C@H](NC(=O)[C@H](N)Cc1ccccc1)C(C)(C)O)C(=O)N1CCC[C@H]1C(=O)N[C@H](C(=O)N[C@H](C(=O)O)[C@@H](C)CC)[C@@H](C)O [compound 036, (S)-4-((R)-2-((R)-2-amino-3-phenylpropanamido)-3-hydroxy-3-methylbutanamido)-5-(((S)-1-((S)-2-(((2S,3R)-1-(((1S,2S)-1-carboxy-2-methylbutyl)amino)-3-hydroxy-1-oxobutan-2-yl)carbamoyl)pyrrolidin-1-yl)-4-methyl-1-oxopent-4-en-2-yl)amino)-5-oxopentanoic acid] (H-[dF][dVal(3-OH)]E[Leu(4,5-dehydro)]PTI-OH) | 
7 |  | 52% | -0.71 |  | C=C(C)C[C@H](NC(=O)[C@@H](NC(=O)[C@@H]1CCCN1C(=O)[C@@H](CC(=C)C)NC(=O)[C@H](CCC(=O)O)NC(=O)[C@H](NC(=O)[C@H](N)Cc1ccccc1)C(C)(C)O)[C@@H](C)O)C(=O)O [compound 049, (S)-2-((2S,3R)-2-((S)-1-((R)-2-((S)-2-((R)-2-((R)-2-amino-3-phenylpropanamido)-3-hydroxy-3-methylbutanamido)-4-carboxybutanamido)-4-methylpent-4-enoyl)pyrrolidine-2-carboxamido)-3-hydroxybutanamido)-4-methylpent-4-enoic acid.] (H-[dF][dVal(3-OH)]E[X4]PT[Leu(4,5-dehydro)]-OH) | 
8 | weak signal | 51% | -0.59 |  | C=C(C)C[C@H](NC(=O)[C@@H](NC(=O)[C@@H]1CCCN1C(=O)[C@H](CC(C)(C)C)NC(=O)[C@H](CCC(=O)O)NC(=O)[C@H](NC(=O)[C@H](N)Cc1ccccc1)C(C)(C)O)[C@@H](C)O)C(N)=O [compound 044, (S)-4-((R)-2-((R)-2-amino-3-phenylpropanamido)-3-hydroxy-3-methylbutanamido)-5-(((S)-1-((S)-2-(((2S,3R)-1-(((S)-1-amino-4-methyl-1-oxopent-4-en-2-yl)amino)-3-hydroxy-1-oxobutan-2-yl)carbamoyl)pyrrolidin-1-yl)-4,4-dimethyl-1-oxopentan-2-yl)amino)-5-oxopentanoic acid] (H-[dF][dVal(3-OH)]E[tBuAla]PT[Leu(4,5-dehydro)]-NH2) | 
9 | weak signal |  | 0.2 | no inhibition | C=C(C)C[C@H](NC(=O)c1ccc(CNC(=O)CC(O)CNC(=O)[C@H](N)Cc2ccccc2)cc1)C(=O)N1[C@H](C(=O)NCC(O)CC(=O)N[C@@H](CC(C)(C)C)C(=O)O)C[C@@H]2CCCC[C@@H]21 (stereo partly drawn) [compound 102, (2S)-2-(4-((2S,3aS,7aS)-1-((2S)-2-(4-((4-((R)-2-amino-3-phenylpropanamido)-3-hydroxybutanamido)methyl)benzamido)-4-methylpent-4-enoyl)octahydro-1H-indole-2-carboxamido)-3-hydroxybutanamido)-4,4-dimethylpentanoic acid.] | 
10 |  | 50% | 0.67 |  | CC[C@H](C)[C@H](NC(=O)[C@H](NC(=O)[C@@H]1[C@@H]2CCCC[C@@H]2CN1C(=O)[C@H](CC(C)(C)C)NC(=O)[C@H](CCC(=O)O)NC(=O)[C@H](NC(=O)[C@@H](N)Cc1ccccc1)C(C)(C)O)C(C)(C)O)C(=O)O [compound 040, (S)-4-((R)-2-((S)-2-amino-3-phenylpropanamido)-3-hydroxy-3-methylbutanamido)-5-(((S)-1-((1S,3aS,7aR)-1-(((R)-1-(((1S,2S)-1-carboxy-2-methylbutyl)amino)-3-hydroxy-3-methyl-1-oxobutan-2-yl)carbamoyl)octahydro-2H-isoindol-2-yl)-4,4-dimethyl-1-oxopentan-2-yl)amino)-5-oxopentanoic acid.] (H-F[dVal(3-OH)]E[tBuAla][X5][dVal(3-OH)]I-OH) | 
